Among the test systems are A498 renal; SK-MEL-5 melanoma; RPMI-8226 leukemia; KM12 colon; SK-MEL-28 melanoma; MDA-MB-231 breast; NCI-H226 lung; OVCAR-4 ovarian; T-47D breast; SW-620 colon.
Holding throughout (test): DTP human tumour cell line panel, 48 h

“And” between values parts separate entries of the source, which are not always exact repeats. Equal values may be shown once.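 How tested: cells in 96-well plates exposed to compound for 48 hours at five concentrations. At the GI50, growth is halved. The concentration for full growth arrest is given as TGI.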

In the case of `Cc1cc(-c2nc3ccc(F)cc3s2)ccc1NC(=O)[C@H](C)N`, the TGI in the assay with A498 renal amounted to 21.7 µM; with SK-MEL-5 melanoma, 26.3 µM; in the assay on RPMI-8226 leukemia, 13.8 µM; with KM12 colon it was 15.3 µM; in the assay on SK-MEL-28 melanoma it was 29.3 µM; in the assay on MDA-MB-231 breast it was 22.6 µM. The concentration for total growth inhibition (TGI) in the assay on NCI-H226 lung is 19.3 µM; in the assay with OVCAR-4 ovarian, 24.4 µM; in the assay with T-47D breast, greater than 37.4 µM; in the assay with SW-620 colon, 15 µM.
`Cc1ccccc1OC(C)C(=O)NN1C(=O)CSC1c1ccccc1` (stereo not drawn): the TGI in the assay on A498 renal, with SK-MEL-5 melanoma, with RPMI-8226 leukemia, with KM12 colon, in the assay on SK-MEL-28 melanoma and with MDA-MB-231 breast was greater than 100 µM each time. The TGI in the assay on NCI-H226 lung, in the assay on OVCAR-4 ovarian, in the assay on T-47D breast and with SW-620 colon was greater than 100 µM each time.
For `C(=C(c1ccc(OC2CCCCO2)cc1)c1ccc(OC2CCCCO2)cc1)c1ccccc1` (stereo not drawn), the TGI with A498 renal was found to be 2.64 µM; in the assay on SK-MEL-5 melanoma, 1.78 µM; in the assay with KM12 colon it was 0.677 µM; in the assay on SK-MEL-28 melanoma, 2.41 µM; in the assay on MDA-MB-231 breast it was 1.52 µM; in the assay with NCI-H226 lung, 3.17 µM. Moreover, the concentration for total growth inhibition (TGI) in the assay with OVCAR-4 ovarian is 1.75 µM; in the assay on T-47D breast, 2.14 µM; in the assay on SW-620 colon, 1.62 µM.
Regarding `Oc1ccccc1CNCc1nc2ccccc2[nH]1`, the concentration for total growth inhibition (TGI) is greater than 100 µM with A498 renal; 65.6 µM in the assay with SK-MEL-5 melanoma; 73.1 µM with RPMI-8226 leukemia; greater than 100 µM with KM12 colon; greater than 100 µM in the assay on SK-MEL-28 melanoma; greater than 100 µM with MDA-MB-231 breast. For the same compound, the TGI in the assay with NCI-H226 lung was 87.4 µM; in the assay on OVCAR-4 ovarian, greater than 100 µM; in the assay on T-47D breast, greater than 100 µM; in the assay with SW-620 colon it was greater than 100 µM.
In the case of `Cc1ccc(-c2cc(-c3ccco3)c(C#N)c(=S)n2C2OC(CO)C(O)C(O)C2O)cc1` (stereo not drawn), the concentration for total growth inhibition (TGI) in the assay with A498 renal is greater than 100 µM; with SK-MEL-5 melanoma it was 18.2 µM and 30.8 µM; in the assay on RPMI-8226 leukemia, > 100 µM and 89.8 µM; in the assay with KM12 colon, 76.9 µM and > 100 µM; in the assay with SK-MEL-28 melanoma, greater than 100 µM; with MDA-MB-231 breast, 35.4 µM and 88.1 µM. For the same compound, the total growth inhibition concentration (TGI) with NCI-H226 lung is 53.9 µM and > 100 µM; in the assay on OVCAR-4 ovarian, 53.6 µM and > 100 µM; in the assay with T-47D breast it was 84.9 µM and > 100 µM; with SW-620 colon, greater than 100 µM. Also, the GI50 in the assay on SK-MEL-5 melanoma is 5.75 µM and 14.9 µM; with MDA-MB-231 breast, 8.83 µM and 24 µM; in the assay on NCI-H226 lung, 13.4 µM and 32.4 µM; in the assay on OVCAR-4 ovarian, 14.5 µM and > 100 µM; with T-47D breast, 23.6 µM and 53 µM.
As for `Cn1c(=O)c2c(nc3n2CC(C(=O)O)N3)n(C)c1=O` (stereo not drawn), the total growth inhibition concentration (TGI) in the assay on A498 renal, in the assay on SK-MEL-5 melanoma, in the assay with RPMI-8226 leukemia, in the assay with KM12 colon, in the assay on SK-MEL-28 melanoma and in the assay on MDA-MB-231 breast was greater than 100 µM throughout. The concentration for total growth inhibition (TGI) in the assay with NCI-H226 lung, in the assay on OVCAR-4 ovarian, with T-47D breast and with SW-620 colon was greater than 100 µM each time.
On to `C=C1CCN2CC[C@@H](OC(=O)/C(C)=C\C)[C@@H]12`, for which the TGI with A498 renal, in the assay on SK-MEL-5 melanoma, in the assay with RPMI-8226 leukemia, with KM12 colon, in the assay with SK-MEL-28 melanoma and in the assay with MDA-MB-231 breast was greater than 100 µM in each case. Further, the TGI in the assay with NCI-H226 lung, in the assay with OVCAR-4 ovarian, with T-47D breast and in the assay on SW-620 colon was greater than 100 µM in each case.
As to `COc1ccc(-n2c(C)nc3ccc(NC(=S)Nc4ccccc4)cc3c2=O)cc1`, the TGI in the assay with A498 renal, in the assay on SK-MEL-5 melanoma, in the assay on RPMI-8226 leukemia, in the assay on KM12 colon, in the assay with SK-MEL-28 melanoma and with MDA-MB-231 breast was greater than 100 µM each time. The concentration for total growth inhibition (TGI) in the assay on NCI-H226 lung, with OVCAR-4 ovarian, in the assay with T-47D breast and with SW-620 colon was greater than 100 µM in each case.
With `CC(=O)Nn1c(=S)[nH]c2ccccc21`, the TGI in the assay with A498 renal, with SK-MEL-5 melanoma, with RPMI-8226 leukemia, in the assay with KM12 colon, in the assay with SK-MEL-28 melanoma and in the assay with MDA-MB-231 breast was greater than 100 µM throughout. Moreover, the TGI in the assay on NCI-H226 lung, in the assay with OVCAR-4 ovarian, in the assay with T-47D breast and in the assay with SW-620 colon was greater than 100 µM each time.
Turning to `COc1cccc(Nc2nc(-c3cccs3)nc3cc(OC)c(OC)cc23)c1`, the total growth inhibition concentration (TGI) was 48.5 µM with A498 renal; 44.5 µM in the assay with SK-MEL-5 melanoma; 27.3 µM in the assay on RPMI-8226 leukemia; 87.1 µM in the assay with KM12 colon; greater than 100 µM in the assay on SK-MEL-28 melanoma; 53.8 µM in the assay with MDA-MB-231 breast. In addition, the TGI in the assay on NCI-H226 lung was greater than 100 µM; in the assay on OVCAR-4 ovarian, greater than 100 µM; with T-47D breast it was greater than 100 µM; in the assay on SW-620 colon it was 52.4 µM.
Take `CN(C)CCNS(=O)(=O)c1ccc(N)cc1`: the TGI in the assay with A498 renal, in the assay on SK-MEL-5 melanoma, in the assay with RPMI-8226 leukemia, with KM12 colon, in the assay with SK-MEL-28 melanoma and in the assay on MDA-MB-231 breast was greater than 100 µM throughout. Moreover, the concentration for total growth inhibition (TGI) in the assay with NCI-H226 lung, in the assay on OVCAR-4 ovarian, in the assay on T-47D breast and in the assay with SW-620 colon was greater than 100 µM in each case.
As to `CC(=O)Oc1cccc2c1C(=O)CCCC2`, the TGI in the assay with A498 renal, with SK-MEL-5 melanoma, in the assay with KM12 colon, with SK-MEL-28 melanoma, with MDA-MB-231 breast and in the assay on NCI-H226 lung was greater than 100 µM in each case. The TGI in the assay on OVCAR-4 ovarian, in the assay with T-47D breast and with SW-620 colon was greater than 100 µM in each case.
Consider `O=C(c1ccccn1)C1(N2CCCCC2)CCCCC1`, for which the TGI in the assay with A498 renal, with SK-MEL-5 melanoma, with RPMI-8226 leukemia, in the assay on KM12 colon, with SK-MEL-28 melanoma and in the assay on MDA-MB-231 breast was greater than 100 µM each time. In addition, the TGI in the assay on NCI-H226 lung, with OVCAR-4 ovarian, in the assay on T-47D breast and in the assay on SW-620 colon was greater than 100 µM each time.

Values taken from PubChem BioAssay (NCI).
